Measured values taken from ChEMBL document CHEMBL5465560, “Selectivity Literature for EUbOPEN Chemogenomic Library” (2024).

How the values were obtained:
[1] = target: Ribosomal protein S6 kinase beta-1 (Homo sapiens, UniProt P23443); assay: Selectivity interaction (Kinase panel (literature)) EUB0001199aCl RPS6KB1; conditions: at 1 µM
[2] = target: Glycogen synthase kinase-3 alpha (Homo sapiens, UniProt P49840); assay: Selectivity interaction (KinomeScan (DiscoverX)) EUB0000666a GSK3A; conditions: at 10 µM
[3] = target: Serine/threonine-protein kinase 10 (Homo sapiens) (UniProt O94804); assay: Selectivity interaction (KinomeScan (DiscoverX)) EUB0001079a STK10; conditions: at 1 µM
[4] = target: Serine/threonine-protein kinase 26 (Homo sapiens, UniProt Q9P289); assay: Selectivity interaction (Kinase panel (DSF assay)) EUB0001558a STK26
[5] = target: Tyrosine-protein kinase Lyn (Homo sapiens, UniProt P07948); assay: Selectivity interaction (ActivX KiNativ screen (kinase selectivity in THP-1 cell lysates)) EUB0000639a LYN; assay type: subcellular; conditions: lysate, at 0.01 µM
[6] = target: T1, Mitogen-activated protein kinase kinase kinase kinase 2 (Homo sapiens) (UniProt Q12851); assay: Selectivity interaction (ActivX KiNativ screen (kinase selectivity in THP-1 cell lysates)) EUB0000639a MAP4K2; assay type: subcellular; conditions: lysate, at 0.01 µM
T1 sequence (whole entry): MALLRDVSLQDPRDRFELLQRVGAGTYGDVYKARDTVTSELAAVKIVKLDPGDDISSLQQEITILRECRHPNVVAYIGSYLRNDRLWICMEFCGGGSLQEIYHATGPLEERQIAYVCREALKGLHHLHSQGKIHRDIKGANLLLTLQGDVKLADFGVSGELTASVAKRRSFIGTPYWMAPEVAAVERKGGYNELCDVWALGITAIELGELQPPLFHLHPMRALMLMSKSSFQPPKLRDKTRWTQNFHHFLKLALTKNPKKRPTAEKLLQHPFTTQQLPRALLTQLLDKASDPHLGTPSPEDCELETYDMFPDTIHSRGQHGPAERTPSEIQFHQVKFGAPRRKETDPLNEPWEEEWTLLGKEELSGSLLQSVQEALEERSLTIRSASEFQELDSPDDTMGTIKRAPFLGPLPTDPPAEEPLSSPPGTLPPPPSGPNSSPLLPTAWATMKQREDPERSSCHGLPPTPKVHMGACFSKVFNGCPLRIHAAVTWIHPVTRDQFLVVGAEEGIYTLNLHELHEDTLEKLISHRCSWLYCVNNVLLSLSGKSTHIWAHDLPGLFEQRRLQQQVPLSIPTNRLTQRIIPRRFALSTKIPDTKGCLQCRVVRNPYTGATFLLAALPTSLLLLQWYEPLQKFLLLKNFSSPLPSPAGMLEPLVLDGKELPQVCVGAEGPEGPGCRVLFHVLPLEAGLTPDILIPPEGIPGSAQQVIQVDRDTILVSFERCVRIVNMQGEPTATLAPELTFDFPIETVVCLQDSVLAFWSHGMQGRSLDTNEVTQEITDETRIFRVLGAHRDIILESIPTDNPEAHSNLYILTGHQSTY

[7] = target: Ribosomal protein S6 kinase alpha-1 (Homo sapiens, UniProt Q15418); assay: Selectivity interaction (KinomeScan (DiscoverX)) EUB0000595a RPS6KA1; conditions: at 10 µM
[8] = target: RAC-beta serine/threonine-protein kinase (Homo sapiens) (UniProt P31751); assay: Selectivity interaction (Ambit KINOMEscan and KiNATiv profiling in Jurkat cells) EUB0000090b AKT2; assay type: cell-based; conditions: at 1 µM
[9] = target: Ribosomal protein S6 kinase alpha-4 (Homo sapiens) (UniProt O75676); assay: Selectivity interaction (Ambit KINOMEscan and KiNATiv profiling in Jurkat cells) EUB0000090b RPS6KA4; assay type: cell-based; conditions: at 1 µM
[10] = tested on: Epidermal growth factor receptor (Homo sapiens), P00533 [UNDEFINED MUTATION]; assay: Selectivity interaction (KinomeScan (DiscoverX)) EUB0001619a EGFR; conditions: at 1 µM
[11] = target: Rho-associated protein kinase 1 (Homo sapiens) (UniProt Q13464); assay: Selectivity interaction (ActivX KiNativ screen (ex vivo kinase selectivity in human PBMCs)) EUB0001619a ROCK1; assay type: cell-based; conditions: PBMC, at 1 µM
[12] = target: T2, Mitogen-activated protein kinase kinase kinase 3 (Homo sapiens) (UniProt Q99759); assay: Selectivity interaction (ActivX KiNativ screen (ex vivo kinase selectivity in human PBMCs)) EUB0001619a MAP3K3; assay type: cell-based; conditions: PBMC, at 1 µM
T2 sequence (whole entry): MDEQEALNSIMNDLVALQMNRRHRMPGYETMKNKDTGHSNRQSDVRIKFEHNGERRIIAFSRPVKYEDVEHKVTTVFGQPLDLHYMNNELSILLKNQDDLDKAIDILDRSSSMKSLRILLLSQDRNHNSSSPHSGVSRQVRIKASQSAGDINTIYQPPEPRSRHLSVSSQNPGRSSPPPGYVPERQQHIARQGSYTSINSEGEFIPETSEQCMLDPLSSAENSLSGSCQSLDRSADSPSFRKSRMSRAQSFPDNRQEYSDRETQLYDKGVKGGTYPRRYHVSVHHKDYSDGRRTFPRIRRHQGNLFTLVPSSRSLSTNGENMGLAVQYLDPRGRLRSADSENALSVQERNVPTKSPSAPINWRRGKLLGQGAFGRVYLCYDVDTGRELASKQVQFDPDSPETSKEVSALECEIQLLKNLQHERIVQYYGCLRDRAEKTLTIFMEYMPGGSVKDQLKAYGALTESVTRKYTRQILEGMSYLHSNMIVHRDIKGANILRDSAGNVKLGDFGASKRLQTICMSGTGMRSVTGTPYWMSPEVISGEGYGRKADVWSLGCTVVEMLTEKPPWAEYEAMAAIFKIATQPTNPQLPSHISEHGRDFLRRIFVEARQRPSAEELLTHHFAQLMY

[13] = target: Death-associated protein kinase 2 (Homo sapiens) (UniProt Q9UIK4); assay: Selectivity interaction (KinomeScan (DiscoverX)) EUB0000655a DAPK2; conditions: at 10 µM
[14] = tested on: Mast/stem cell growth factor receptor Kit (Homo sapiens), P10721 [A829P]; assay: (§1) Selectivity interaction (LanthaScreen Eu Kinase Binding Assay) EUB0001632a KIT; conditions: at 10 µM
[15] = tested on: Mast/stem cell growth factor receptor Kit (Homo sapiens), P10721 [N822K]; assay: as §1; conditions: at 10 µM
[16] = tested on: Mast/stem cell growth factor receptor Kit (Homo sapiens), P10721 [D816V]; assay: as §1; conditions: at 10 µM
[17] = tested on: Mast/stem cell growth factor receptor Kit (Homo sapiens), P10721 [V654A]; assay: as §1; conditions: at 10 µM
[18] = tested on: Mast/stem cell growth factor receptor Kit (Homo sapiens), P10721 [V559D,T670I]; assay: as §1; conditions: at 10 µM
[19] = tested on: Mast/stem cell growth factor receptor Kit (Homo sapiens), P10721 [D820E]; assay: as §1; conditions: at 10 µM
[20] = tested on: Mast/stem cell growth factor receptor Kit (Homo sapiens), P10721 [T670E]; assay: as §1; conditions: at 10 µM
[21] = tested on: Mast/stem cell growth factor receptor Kit (Homo sapiens), P10721 [D816H]; assay: as §1; conditions: at 10 µM
[22] = tested on: Mast/stem cell growth factor receptor Kit (Homo sapiens), P10721 [Y823D]; assay: as §1; conditions: at 10 µM
[23] = target: Tyrosine-protein kinase CSK (Homo sapiens) (UniProt P41240); assay: Selectivity interaction (Kinase panel (Z-LYTE Assay)) EUB0001632a CSK; conditions: at 10 µM

Sequence of Mast/stem cell growth factor receptor Kit (Homo sapiens), P10721 [N822K] (P10721 whole entry N822K): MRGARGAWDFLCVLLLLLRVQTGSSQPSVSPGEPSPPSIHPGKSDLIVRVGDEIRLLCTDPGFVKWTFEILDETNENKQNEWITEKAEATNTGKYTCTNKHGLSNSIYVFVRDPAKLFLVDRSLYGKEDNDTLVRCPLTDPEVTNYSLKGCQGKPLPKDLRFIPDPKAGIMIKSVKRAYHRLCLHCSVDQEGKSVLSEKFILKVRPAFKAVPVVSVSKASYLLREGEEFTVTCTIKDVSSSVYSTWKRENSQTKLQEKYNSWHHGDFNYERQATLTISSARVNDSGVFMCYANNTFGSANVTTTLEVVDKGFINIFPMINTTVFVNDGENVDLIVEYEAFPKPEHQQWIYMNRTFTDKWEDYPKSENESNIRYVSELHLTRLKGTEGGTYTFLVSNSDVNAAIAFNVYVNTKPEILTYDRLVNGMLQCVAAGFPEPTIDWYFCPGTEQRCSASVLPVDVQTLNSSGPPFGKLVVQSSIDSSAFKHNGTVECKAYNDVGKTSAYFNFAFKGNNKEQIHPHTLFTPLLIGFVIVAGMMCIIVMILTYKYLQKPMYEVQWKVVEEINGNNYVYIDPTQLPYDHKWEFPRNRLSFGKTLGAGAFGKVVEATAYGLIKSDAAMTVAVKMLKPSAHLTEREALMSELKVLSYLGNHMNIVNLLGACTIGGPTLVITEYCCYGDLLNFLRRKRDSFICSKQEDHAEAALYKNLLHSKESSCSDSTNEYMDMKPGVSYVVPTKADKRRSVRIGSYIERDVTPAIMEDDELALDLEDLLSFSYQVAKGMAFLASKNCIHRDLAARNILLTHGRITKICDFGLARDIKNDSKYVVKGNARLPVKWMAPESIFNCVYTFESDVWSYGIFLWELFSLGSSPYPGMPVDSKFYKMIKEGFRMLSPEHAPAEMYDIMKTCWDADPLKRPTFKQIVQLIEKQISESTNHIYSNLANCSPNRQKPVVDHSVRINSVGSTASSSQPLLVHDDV
Sequence of Mast/stem cell growth factor receptor Kit (Homo sapiens), P10721 [D820E] (P10721 whole entry D820E): as the sequence (P10721 whole entry N822K) above, with D820E, K822N counted along it
Sequence of Mast/stem cell growth factor receptor Kit (Homo sapiens), P10721 [V559D,T670I] (P10721 whole entry V559D/T670I): as the sequence (P10721 whole entry N822K) above, with V559D, T670I, K822N counted along it
Sequence of Ribosomal protein S6 kinase alpha-4 (Homo sapiens) (O75676 whole entry, looked up): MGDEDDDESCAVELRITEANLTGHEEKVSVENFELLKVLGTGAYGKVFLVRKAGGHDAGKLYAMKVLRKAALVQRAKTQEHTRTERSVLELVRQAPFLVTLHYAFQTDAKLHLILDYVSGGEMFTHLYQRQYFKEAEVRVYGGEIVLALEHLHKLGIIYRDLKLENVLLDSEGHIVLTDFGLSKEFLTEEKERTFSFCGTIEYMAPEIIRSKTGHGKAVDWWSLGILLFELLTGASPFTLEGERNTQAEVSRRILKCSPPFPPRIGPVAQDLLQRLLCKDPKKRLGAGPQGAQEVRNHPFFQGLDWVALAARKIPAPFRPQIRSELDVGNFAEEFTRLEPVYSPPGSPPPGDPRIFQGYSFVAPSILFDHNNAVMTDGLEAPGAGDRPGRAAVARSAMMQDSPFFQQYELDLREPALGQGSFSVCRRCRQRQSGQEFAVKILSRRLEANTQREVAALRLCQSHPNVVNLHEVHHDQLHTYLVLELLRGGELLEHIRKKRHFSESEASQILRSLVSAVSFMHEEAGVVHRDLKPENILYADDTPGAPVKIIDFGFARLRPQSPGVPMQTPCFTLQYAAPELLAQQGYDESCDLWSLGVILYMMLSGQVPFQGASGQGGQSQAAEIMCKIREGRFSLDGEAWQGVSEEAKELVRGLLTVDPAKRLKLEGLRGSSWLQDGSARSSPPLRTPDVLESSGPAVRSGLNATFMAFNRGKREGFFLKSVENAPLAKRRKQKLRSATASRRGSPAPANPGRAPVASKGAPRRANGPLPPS
Sequence of RAC-beta serine/threonine-protein kinase (Homo sapiens) (P31751 whole entry): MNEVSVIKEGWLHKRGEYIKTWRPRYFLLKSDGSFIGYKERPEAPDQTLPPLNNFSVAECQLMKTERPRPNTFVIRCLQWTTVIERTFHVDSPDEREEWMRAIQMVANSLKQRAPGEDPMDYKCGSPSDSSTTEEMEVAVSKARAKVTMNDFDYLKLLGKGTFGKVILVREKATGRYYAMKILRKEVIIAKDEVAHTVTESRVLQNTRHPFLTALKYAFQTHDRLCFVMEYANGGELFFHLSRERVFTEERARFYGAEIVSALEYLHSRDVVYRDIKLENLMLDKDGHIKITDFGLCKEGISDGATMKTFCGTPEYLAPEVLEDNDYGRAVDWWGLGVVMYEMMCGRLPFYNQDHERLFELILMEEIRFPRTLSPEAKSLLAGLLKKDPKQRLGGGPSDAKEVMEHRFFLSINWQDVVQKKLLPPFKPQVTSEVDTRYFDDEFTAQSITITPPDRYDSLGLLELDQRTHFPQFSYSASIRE
Sequence of Ribosomal protein S6 kinase alpha-1 (Q15418 whole entry): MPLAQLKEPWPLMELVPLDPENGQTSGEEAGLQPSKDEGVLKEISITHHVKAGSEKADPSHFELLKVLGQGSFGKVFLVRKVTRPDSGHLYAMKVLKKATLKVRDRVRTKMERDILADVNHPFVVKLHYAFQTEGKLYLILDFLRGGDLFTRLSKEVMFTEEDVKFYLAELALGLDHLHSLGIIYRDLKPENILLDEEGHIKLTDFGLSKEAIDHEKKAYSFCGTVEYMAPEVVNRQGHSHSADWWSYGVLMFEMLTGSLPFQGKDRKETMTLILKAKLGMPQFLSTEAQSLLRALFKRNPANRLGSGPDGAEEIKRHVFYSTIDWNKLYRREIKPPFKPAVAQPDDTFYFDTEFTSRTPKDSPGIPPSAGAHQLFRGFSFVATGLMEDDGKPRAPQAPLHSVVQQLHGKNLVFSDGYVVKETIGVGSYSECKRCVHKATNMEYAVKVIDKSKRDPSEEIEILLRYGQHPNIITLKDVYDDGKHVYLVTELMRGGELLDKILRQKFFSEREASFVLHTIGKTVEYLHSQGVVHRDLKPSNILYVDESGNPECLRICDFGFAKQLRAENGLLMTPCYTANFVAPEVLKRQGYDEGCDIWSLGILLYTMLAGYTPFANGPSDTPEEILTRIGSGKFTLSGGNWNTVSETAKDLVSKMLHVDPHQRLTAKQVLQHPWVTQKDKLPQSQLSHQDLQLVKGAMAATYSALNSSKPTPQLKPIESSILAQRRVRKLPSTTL

`CN1Cc2nccc(-c3cn(C)nc3-c3ccc(F)cc3)c2C1=O` showed a % of inhibition [1] of -3%.

Compound `O=C(NOC[C@H](O)CO)c1ccc(F)c(F)c1Nc1ccc(I)cc1F` has a % of control [2] of 90%.

In the case of `Nc1cnc(N2CCc3cc(S(=O)(=O)Nc4c(F)cc(Cl)cc4F)cc(N4CCCC4=O)c32)nc1` [TP-020n], the % of control [3] is reported as 100%.

Work on `CC(C)(O)[C@H](F)CN1Cc2cc(NC(=O)c3cnn4cccnc34)c(N3CCOCC3)cc2C1=O` yielded a dTM [4] of 0.4 K.

Work on `CC[C@@H]1[C@H](F)C(=O)N[C@@H]1COc1nccc2cc(C(N)=O)c(OC)cc12` [ZIMLOVISERTIB] yielded a % of inhibition [5] of 5.3% and a % of inhibition [6] of 13.3%.

`COCC(=O)NC/C=C/c1ccc2ncnc(Nc3ccc(Oc4ccc(C)nc4)c(C)c3)c2c1` [CP-724714] was tested, and the % of control [7] was 73%.

For `CN(C)C/C=C/C(=O)Nc1ccc(C(=O)N2CCCC(Nc3ncc(Cl)c(-c4c[nH]c5ccccc45)n3)C2)cc1` (stereo not drawn), the % of control [8] was 80% and the % of control [9] was 100%.

In the case of `N#Cc1cccc(-c2c[nH]c3ncnc(N4CCOCC4)c23)c1`, the % of control [10] is reported as 79%, the % of inhibition [11] is reported as -3% and the % of inhibition [12] is reported as 7%.

`CN(C)CCOc1ccc(-c2nc(-c3ccncc3)c(-c3ccc4c(c3)CC/C4=N\O)[nH]2)cc1` gave a % of control [13] of 100%.

For `Cn1cc(-n2cnc3c(NCc4nc5cc(Cl)c(Cl)cc5[nH]4)nc(N4CCOCC4)nc32)cn1`, the % of inhibition [14] was -25.5%, the % of inhibition [15] was -18.2% and the % of inhibition [16] was -20.9%. For the same compound, the % of inhibition [17] was -40.6%, the % of inhibition [18] was 1.44% and the % of inhibition [19] was -6.81%. It also gave a % of inhibition [20] of -20.6%, a % of inhibition [21] of 9.61% and a % of inhibition [22] of -40.5%. For the same compound, the % of control [23] was 10.7%.
